According to ChEMBL document CHEMBL1135366, “An N1-hydrogen bonding model for flavin coenzyme” (Bioorg Med Chem Lett, 2002):

Experiments:
[1] = Reaction constant k1 value for the oxidation of the 1-benzyl-dihydronicotinamide in 100 mM, pH 7.4 phosphate buffer at 15 degrees C
[2] = Reaction constant k1 value for the oxidation of the 1-benzyl-dihydronicotinamide in 100 mM, pH 7.4 phosphate buffer at 30 degrees C
[3] = Reaction constant k1 value for sulfite (100 mM) addition at pH 7.4 phosphate buffer at 30 degrees C
[4] = Reaction constant k-1 value for sulfite (100 mM) addition at pH 7.4 phosphate buffer at 30 degrees C
[5] = Dissociation constant value was determined

SMILES	K1 [1] [M⁻¹ s⁻¹]	K1 [2] [M⁻¹ s⁻¹]	K1 [3] [M⁻¹ s⁻¹]	K-1 [4] [min⁻¹]	Kd [5] [mM]
O=c1nc2n3c4c(cccc4nc-2c(=O)[nH]1)CCC3CO (configuration not stated)	10.8	24.9	0.00822	0.183	371
Cn1c2nc(=O)[nH]c(=O)c-2nc2ccccc21	15.5	42.9			
O=c1nc2n3c4c(cccc4nc-2c(=O)[nH]1)CCC3	10.2	25.7	0.00738	0.651	1470
